Experimental data as given in patent publication US20250114331A1, “CONCURRENT TARGETING OF ONCOGENIC PATHWAYS TO ENHANCE CHEMOTHERAPY AND IMMUNOTHERAPY” (THE JOHNS HOPKINS UNIVERSITY, priority 2021, published 2025).
“Also recorded” adds a separate entry of the source.

How the values were obtained:
pSTAT3 = experiment: Recombinant IL6 stimulation (Western blotting); assay type: cell-based, human; settings: H1299 and H1437 YAP1-sh cells, 0.1, 1, or 10 ng/mL
Experimental: Recombinant IL6 stimulation and neutralization of IL6. For exogenous IL6 stimulation, 5×10^5 cells were seeded in 10-cm dishes. After 48 hours, human recombinant IL6 (0.1, 1, or 10 ng/mL) from PeproTech was added to the cells. They were harvested after 48-hour incubation. To neutralize the IL6, Human/Primate IL6 Antibody (R&D Systems) was administered. We cultured 5×10^5 cells in 10-cm dishes. After 48 hours, antibody (1 mg/mL) was added to the cells. They were then harvested after 24 or 48 hours. Protein expression of each sample was evaluated by Western blotting.

H1299 and H1437 cells [1] = experiment: Immunoblotting of YAP1, STAT3 and pSTAT3 after drug treatment; assay type: cell-based, human
Experimental: Western blotting. Cells were dissolved in RIPA buffer (Thermo Fisher Scientific) supplemented with proteinase inhibitor and phosphatase inhibitor cocktails (Roche, Mannheim, Germany). After total protein lysate was electrophoretically transferred onto PVDF membrane, the membrane was blocked with 5% skim milk in 0.05% TBS-Tween buffer and incubated at 4° C. overnight with a primary antibody specific to each protein. The membrane was then probed with an appropriate secondary antibody (Cell Signaling Technology, Danvers, USA). β-actin served as an endogenous control. The primary antibodies and dilution ratios were β-actin (Sigma-Aldrich; #A2228; 1:5000), NANOG (D73G4; Cell Signaling Technology; #4903; 1:1000), OCT4 (D705Z; Cell Signaling Technology; #75463; 1:500), SOX2 (EPR3131; Abcam, Cambridge, UK; #ab92494; 1:500), STAT3 (124H6; Cell Signaling Technology; #9139; 1:2000), pSTAT3 (D3A7; Cell Signaling Technology; #9145; 1:1000) and YAP1 (EP1674Y; Abcam, #ab52771; 1:2000).
To determine doses of these drugs that are effective for pathway inhibition, H1299 and H1437 cells were treated with verteporfin or S3I-201 for 72 hours.

H1437 xenografts = experiment: H1437 xenograft treatment; assay type: in vivo, NSG mice; settings: verteporfin 50 mg/kg i.p. three times a week; S3I-201 5 mg/kg i.p. every day
From the text: (§1) For therapeutic experiments, 4- to 5-week-old NOD/SCID/IL2Ry−/− (NSG) mice were obtained from the Johns Hopkins Medical Institute's (Baltimore, MD) animal care facility. We injected H1299 cells (1×106) and H1437 cells (1×106), which were suspended in the mixture as described above, subcutaneously into both flanks. For the patient-derived xenograft (PDX) models, 13 PDX blocks (CTG0162, 0178, 0502, 0848, 1309, 1351, 1358, 1361, 1762, 1885, 2017, 2481, and 2708) were obtained from Champion Oncology. All these PDXs were established from primary lung adenocarcinoma tumors. The tumor tissues were cut into 4×2 mm pieces and implanted in the subcutaneous spaces of both flanks. When tumor volumes reached to 200+50 mm3, mice were randomly assigned to six experimental groups [control, chemo (cisplatin+gemcitabine), chemo+verteporfin, chemo+S3I-201, “all” (cisplatin+gemcitabine+verteporfin+S3I-201), and verteporfin+S3I-201] at 5 mice per group. Cisplatin (Sigma-Aldrich; #P4394), gemcitabine (Medkoo; #100410), S3I-201 (MedKoo; #202541), and verteporfin (Sigma-Aldrich; #1711461) were used to treat the mice. Cisplatin (2.5 mg/kg) and gemcitabine (120 mg/kg) were administrated via intraperitoneal injection once a week (22). […] Each tumor volume was measured every 3 days. Therapeutic efficacy was evaluated from percentage change of the tumor volume compared with the tumor size before treatment.

H1299 xenografts = experiment: H1299 xenograft treatment; assay type: in vivo, NSG mice; settings: verteporfin 50 mg/kg i.p. three times a week; S3I-201 5 mg/kg i.p. every day
From the text: as §1

MB49 derived xenograft = MB49 derived xenograft treated with STAT3 inhibitor; assay type: in vivo, C57BL/6 mice; settings: for expression of CSC associated markers and CXCLs in tumor tissues: qRT-PCR
Experimental: In vivo xenograft assay and treatment. For in vivo xenograft, cells were suspended in 100 μL of a 1:1 mixture of serum-free DMEM and Cultrex Stem Cell Qualified Reduced Growth Factor Basement Membrane Extract (Trevigen, Gaithersburg, USA), and then injected subcutaneously into the both flanks of C57BL/6 mice for MB49/UPPL595/BBN975 cells.
YAP1 induces immunosuppression partially through IL6/STAT3 signaling and STAT3 inhibition mimics the antitumor activity of YAP1 attenuation. The present inventors recently reported that YAP1 positively regulates IL6/STAT3 signaling (38) in LUAD.

H1299 and H1437 cells [2] = experiment: qRT-PCR of YAP1 and STAT3 pathway genes after drug treatment for 72 hours; assay type: cell-based, human
Experimental: qRT-PCR. The mRNA expression level of each gene was determined by qRT-PCR. […] We quantified the β-actin mRNA level to normalize the expression levels of the targeted genes. Each sample was tested in triplicate and run three times. Each graph shown in our figures indicates the average mRNA expression level of targeted genes compared with the β-actin expression level, with standard error of mean. To determine doses of these drugs that are effective for pathway inhibition, H1299 and H1437 cells were treated with verteporfin or S3I-201 for 72 hours.

[3] = system: H1299, H1437 and A549 cells; experiment: Apoptosis assay with cisplatin in YAP1-modified cells; assay type: cell-based, human; settings: cisplatin 2 or 5 for 72 hours
Experimental: Apoptosis assay. Cells were incubated for 72 hours with CDDP (2 μM or 5 μM) or normal saline. Apoptosis assays were conducted using PE Annexin V Apoptosis Detection Kit with 7-AAD (BioLegend, San Diego, USA) according to manufacturer's protocol. Treated cells were analyzed by BD FACSCalibur flow cytometer (BD Biosciences, San Jose, USA).

[4] = system: H1299, H1437 and A549 cells; experiment: Cell viability assay with cisplatin in YAP1/STAT3-modified cells; assay type: cell-based, human
Experimental: Cell proliferation assay and viability assay. Cell proliferation and viability were evaluated using Cell Counting Kit-8 (Dojindo Molecular Technologies). For cell proliferation assay, after cells (5×10^3/well) were seeded into 96-well plates with RPMI1640 containing 2% FBS, the optical density of each well was measured every 24 hours for 4 days. We added […] of cell counting kit-8 solution to each well 2 hours before measuring the absorbance (17). For the cell viability assay, after cells were incubated for 48 hours (5×10^3/well), they were exposed to each respective therapeutic agent for 72 hours. Cell viability for each agent was defined as the ratio of absorbance values of the treated cells to control cells (i.e., pharmacologically untreated or genetically unmodified). Absorbance values (450-630 nm) were measured by a Spectra Max 250 96-well Plate Reader (Molecular Devices). Each sample was applied to six wells, and their average rate was calculated. The therapeutic agents used here (in vitro) were cisplatin (Sigma-Aldrich; #P4394), S3I-201 (Santa Cruz Biotechnology; #sc-204304; ref. 18), and verteporfin (MedKoo; #203120).

## IL6: human recombinant IL6 from PeproTech
pSTAT3
  pSTAT3 level: increased pSTAT3 expressions in a dose-dependent manner
pSTAT3; listed as recombinant human IL6
  pSTAT3 level: increased pSTAT3 levels dose dependently

## Cc1ccc(S(=O)(=O)OCC(=O)Nc2ccc(C(=O)O)c(O)c2)cc1 [S3I-201]
H1299 and H1437 cells [1]
  pSTAT3 expression: suppressed pSTAT3 without affecting YAP1 or total STAT3 expressions; also recorded: suppressed pSTAT3 in a dose-dependent manner
H1437 xenografts
  tumor growth: did not significantly affect tumor growth
H1299 xenografts
  tumor growth: inhibited growth
MB49 derived xenograft; mouse, in vivo
  infiltration of MDSCs (GR-1) and CD8+ T cells in the TME, IHC: decreased infiltration of MDSCs (GR-1) and significantly more CD8+ T cells
  tumor growth: significant regression of the tumor growth
MB49 derived xenograft; listed as STAT3 inhibitor
  expression of CSC associated markers and CXCLs in tumor tissues: downregulate different CXCR2 associated ligands
MB49 derived xenograft; listed as STAT-3 inhibitor
  expression of CSC associated markers and CXCLs in tumor tissues: significantly decreased expression of CSC associated markers and CXCLs
H1299 and H1437 cells [2]
  mRNA expression of STAT3 and its targeted genes NRP1 and PROS1: suppressed both STAT3 and its targeted genes; also recorded: inhibited mRNA expressions of not only NRP1 and PROS1 (STAT3-targeting genes) but also STAT3

## N.N.[Cl][Pt][Cl] [cisplatin]
[3]; YAP1-LV cells versus control cells
  cells undergoing apoptosis: lower fractions; also recorded: substantially less apoptosis
[3]; YAP1-sh cells versus control cells
  cells undergoing apoptosis: higher fractions of apoptotic cells; also recorded: greater percentages of cells undergoing apoptosis
[4]; A549 YAP1-LV cells versus control cells, 72 hours
  sensitivity to cisplatin (cell viability): relatively resistant; also recorded: higher resistance
[4]; A549 YAP1-LV/STAT3-si cells versus YAP1-LV/STAT3-Ctrl cells
  sensitivity to cisplatin (cell viability): restored cisplatin sensitivity
[4]; H1299 and H1437 YAP1-sh cells versus control cells, 72 hours
  sensitivity to cisplatin (cell viability): increased sensitivities; also recorded: greater sensitivity
[4]; YAP1-sh/STAT3-LV cells (H1299 and H1437) versus YAP1-sh/STAT3-Ctrl cells, 72 hours, 5 cisplatin
  sensitivity to cisplatin (cell viability): restored cell proliferation and cisplatin resistance; also recorded: less sensitivity
[4]; YAP1-sh/STAT3-si cells (H1299 and H1437) versus single inhibition or control
  sensitivity to cisplatin (cell viability): greater sensitivity; also recorded: highest sensitivity
